Data taken from US6838478B2, “Amino acid derivatives and their use as thrombin inhibitors” (AstraZeneca AB, priority 1996, dated 2005).

Biological target: T1, Human thrombin (Homo sapiens, UniProt P00734)
T1 construct: purchased Sigma Chem Co T 6769
Test: Test A: determination of thrombin clotting time (TT)
Type: biochemical
Settings: concentration of inhibitor that doubles the thrombin clotting time for human plasma
Experimental: Determination of Thrombin Clotting Time (TT)
Human thrombin (T 6769, Sigma Chem Co) in buffer solution, pH 7.4, 100 μI, and inhibitor solution, 100 μl, were incubated for one min. Pooled normal citrated human plasma, 100 μl, was then added and the clotting time measured in an automatic device (KC 10, Amelung).
The clotting time in seconds was plotted against the inhibitor concentration, and the IC50TT was determined by interpolation.
IC50TT is the concentration of inhibitor in the test that doubles the thrombin clotting time for human plasma.

Row | Compound | IC50 [nM]
1 | COc1cccc(C(CO)C(=O)N2CCCC2C(=O)NCc2ccc(C(N)=NO)cc2)c1 (single isomer, unassigned) [Example 13, (S)- or (R)-3-Methoxyphenyl-CH(CH2OH)—C(O)-Pro-Pab-OH] | > 1000
2 | CCC(=O)ON=C(N)c1ccc(CNC(=O)C2CCCN2C(=O)C(CO)c2cccc(OC)c2)cc1 (single isomer, unassigned) [Example 14, (S)- or (R)-3-Methoxyphenyl-CH(CH2OH)—C(O)-Pro-Pab-OC(O)Et] | > 1000

Further lines, results first:

Row | IC50 [nM] | Compound
3 | > 1000 | COc1cccc(C(CO)C(=O)N2CCC2C(=O)NCc2ccc(C(N)=NO)cc2)c1 (single isomer, unassigned) [Example 9, (R)- or (S)-3-Methoxyphenyl-CH(CH2OH)—C(O)-Aze-Pab-OH]
4 | > 1000 | COc1cccc(C(CO)C(=O)N2CCCC2C(=O)NCc2ccc(C(N)=NC(=O)OCc3ccccc3)cc2)c1 (single isomer, unassigned) [Example 10, (S)- or (R)-3-Methoxyphenyl-CH(CH2OH)CO-Pro-Pab(Z)]
5 | > 1000 | NC(=NO)c1ccc(CNC(=O)C2CCCN2C(=O)C(CO)c2ccccc2)cc1 [Example 8, (R,S)-Ph-CH(CH2OH)—C(O)-Pro-Pab-OH]
6 | > 1000 | COCC(C)(C(=O)N1CCCC1C(=O)NCc1ccc(C(N)=NC(=O)OCc2ccccc2)cc1)c1ccccc1 [Example 40, (R,S)-Ph-C(Me)(CH2OMe)-C(O)-Pro-Pab(Z)]
